# Measurements reported in ChEMBL document CHEMBL1136519, “Indole amide hydroxamic acids as potent inhibitors of histone deacetylases” (Bioorg Med Chem Lett, 2003).
# Test system: Mus musculus
# Experiment: Antitumor activity against HT1080 cell line in mouse xenograft model after orally dosed once every other day at 30 mg/kg
# Format: functional
# Settings: HT-1080, route oral
row,SMILES,inhibition in vivo at 30 mg/kg [%]
1,O=C(CCCCCCNC(=O)c1cc2ccccc2[nH]1)NO,36

# Target: Histone deacetylase (HDAC1 and HDAC2) (Homo sapiens, UniProt Q13547+Q92769)
# Experiment: Inhibitory activity was tested against histone deacetylase (HDAC).
# Format: protein assay
# Settings: not given
row,SMILES,IC50 [nM]
1,O=C(CCCCCCNC(=O)c1cc2cc(F)ccc2[nH]1)NO,5.4
2,O=C(CCCCCCNC(=O)c1c[nH]c2ccccc12)NO,37.5
3,O=C(CCCCCCNC(=O)c1cc2cc(Br)ccc2[nH]1)NO,3.5
4,O=C(CCCCCCNC(=O)c1cn(-c2ccc(Br)cc2)c2ccccc12)NO,18.9
5,Cn1cc(C(=O)NCCCCCCC(=O)NO)c2ccccc21,56
6,CC1c2ccccc2CC1C(=O)NCCCCCCC(=O)NO (stereo not given),732
7,COc1cccc2cc(C(=O)NCCCCCCC(=O)NO)oc12,17
8,O=C(CCCCCCNC(=O)c1ccc2[nH]ccc2c1)NO,31.4
9,O=C(CCCCCNC(=O)c1c[nH]c2ccccc12)NO,39.8
10,O=C(CCCCCCNC(=O)c1cc2cc(OCc3ccccc3)ccc2[nH]1)NO,13.6
11,O=C(CCCCCNC(=O)c1ccc2[nH]ccc2c1)NO,17
12,O=C(CCCCCCNC(=O)c1cc2cc(OC(F)(F)F)ccc2[nH]1)NO,16
13,COc1cc(OC)c2cc(C(=O)NCCCCCCC(=O)NO)[nH]c2c1,3.1
14,O=C(CCCCCCNC(=O)c1ccc2cc[nH]c2c1)NO,56.5
15,O=C(CCCCCCNC(=O)c1cn(-c2ccc(F)cc2)c2ccccc12)NO,11.8
16,Cc1ccc2[nH]c(C(=O)NCCCCCCC(=O)NO)cc2c1,6.3
17,O=C(CCCCCCNC(=O)c1cccc2[nH]ccc12)NO,80.3
18,Cc1c(C(=O)NCCCCCCC(=O)NO)oc2ccccc12,12.5

row,SMILES,IC50 [nM]
1,COc1ccc2cc(C(=O)NCCCCCCC(=O)NO)[nH]c2c1,9.9
2,O=C(CCCCCCNC(=O)c1cn(-c2ccccc2)c2ccccc12)NO,3.5
3,O=C(CCCCCCNC(=O)c1ccc[nH]1)NO,524
4,COc1cccc2[nH]c(C(=O)NCCCCCCC(=O)NO)cc12,3.1
5,O=C(CCCCCNC(=O)c1cc2ccccc2[nH]1)NO,12.5
6,COc1ccc2[nH]c(C(=O)NCCCCCCC(=O)NO)cc2c1,6.5
7,O=C(CCCCCCNC(=O)c1cc2ccccc2[nH]1)NO,14.6
8,O=C(CCCCCCNC(=O)c1ccccn1)NO,1680
9,O=C(CCCCCCNC(=O)c1cc2cc(Cl)ccc2o1)NO,15
10,O=C(CCCCCNC(=O)c1cccc2[nH]ccc12)NO,87.6
11,O=C(CCCCCCNC(=O)c1cn(Cc2ccccc2)c2ccccc12)NO,12
12,O=C(CCCCCNC(=O)c1ccc2cc[nH]c2c1)NO,36.4
13,Cn1c(C(=O)NCCCCCCC(=O)NO)cc2ccccc21,47
14,O=C(CCCCCCNC(=O)c1cc2ccccc2o1)NO,29.6
15,O=C(CCCCCNC(=O)c1cccc2cc[nH]c12)NO,37.6
16,O=C(CCCCCCNC(=O)c1cccc2cc[nH]c12)NO,41
17,COc1ccc2oc(C(=O)NCCCCCCC(=O)NO)cc2c1,15

# Test system: MDA-MB-435
# Experiment: cells
# Format: functional, cell-based
# Settings: Homo sapiens
# Description: Antiproliferative activity against MDA-435 (human breast carcinoma) cell line.
row,SMILES,IC50 [nM]
1,O=C(CCCCCCNC(=O)c1cc2cc(F)ccc2[nH]1)NO,250
2,O=C(CCCCCCNC(=O)c1cc2cc(Br)ccc2[nH]1)NO,470
3,O=C(CCCCCCNC(=O)c1cn(-c2ccc(Br)cc2)c2ccccc12)NO,340
4,Cn1cc(C(=O)NCCCCCCC(=O)NO)c2ccccc21,390
5,COc1cccc2cc(C(=O)NCCCCCCC(=O)NO)oc12,320
6,O=C(CCCCCCNC(=O)c1cc2cc(OCc3ccccc3)ccc2[nH]1)NO,800
7,O=C(CCCCCCNC(=O)c1cc2cc(OC(F)(F)F)ccc2[nH]1)NO,300
8,COc1cc(OC)c2cc(C(=O)NCCCCCCC(=O)NO)[nH]c2c1,600
9,O=C(CCCCCCNC(=O)c1cn(-c2ccc(F)cc2)c2ccccc12)NO,380
10,Cc1ccc2[nH]c(C(=O)NCCCCCCC(=O)NO)cc2c1,170
11,COc1ccc2cc(C(=O)NCCCCCCC(=O)NO)[nH]c2c1,230
12,O=C(CCCCCCNC(=O)c1cn(-c2ccccc2)c2ccccc12)NO,760
13,COc1cccc2[nH]c(C(=O)NCCCCCCC(=O)NO)cc12,130
14,COc1ccc2[nH]c(C(=O)NCCCCCCC(=O)NO)cc2c1,1200
15,O=C(CCCCCCNC(=O)c1cc2cc(Cl)ccc2o1)NO,190
16,O=C(CCCCCCNC(=O)c1cn(Cc2ccccc2)c2ccccc12)NO,850
17,Cn1c(C(=O)NCCCCCCC(=O)NO)cc2ccccc21,610
18,O=C(CCCCCCNC(=O)c1cc2ccccc2o1)NO,490
19,COc1ccc2oc(C(=O)NCCCCCCC(=O)NO)cc2c1,300

# Test system: HT-1080
# Experiment: Antiproliferative activity against HT1080 (human fibrosarcoma) cell line.
# Format: functional, cell-based
# Settings: not given
row,SMILES,IC50 [nM]
1,O=C(CCCCCCNC(=O)c1cc2cc(F)ccc2[nH]1)NO,480
2,O=C(CCCCCCNC(=O)c1cc2cc(Br)ccc2[nH]1)NO,480
3,O=C(CCCCCCNC(=O)c1cn(-c2ccc(Br)cc2)c2ccccc12)NO,490
4,Cn1cc(C(=O)NCCCCCCC(=O)NO)c2ccccc21,780
5,COc1cccc2cc(C(=O)NCCCCCCC(=O)NO)oc12,710
6,O=C(CCCCCCNC(=O)c1cc2cc(OCc3ccccc3)ccc2[nH]1)NO,1500
7,O=C(CCCCCCNC(=O)c1cc2cc(OC(F)(F)F)ccc2[nH]1)NO,890
8,COc1cc(OC)c2cc(C(=O)NCCCCCCC(=O)NO)[nH]c2c1,260
9,O=C(CCCCCCNC(=O)c1cn(-c2ccc(F)cc2)c2ccccc12)NO,990
10,Cc1ccc2[nH]c(C(=O)NCCCCCCC(=O)NO)cc2c1,200
11,COc1ccc2cc(C(=O)NCCCCCCC(=O)NO)[nH]c2c1,340
12,O=C(CCCCCCNC(=O)c1cn(-c2ccccc2)c2ccccc12)NO,2500
13,COc1cccc2[nH]c(C(=O)NCCCCCCC(=O)NO)cc12,120
14,COc1ccc2[nH]c(C(=O)NCCCCCCC(=O)NO)cc2c1,720
15,O=C(CCCCCCNC(=O)c1cc2cc(Cl)ccc2o1)NO,180
16,O=C(CCCCCCNC(=O)c1cn(Cc2ccccc2)c2ccccc12)NO,1900
17,Cn1c(C(=O)NCCCCCCC(=O)NO)cc2ccccc21,840
18,O=C(CCCCCCNC(=O)c1cc2ccccc2o1)NO,760
19,COc1ccc2oc(C(=O)NCCCCCCC(=O)NO)cc2c1,380

# Test system: Mus musculus
# Experiment: Antitumor activity against HT1080 cell line in mouse xenograft model after orally dosed once every other day at 100 mg/kg
# Format: functional
# Settings: HT-1080, route oral
row,SMILES,inhibition in vivo at 100 mg/kg [%]
1,O=C(CCCCCCNC(=O)c1cc2ccccc2[nH]1)NO,39
